From ChEMBL document CHEMBL4673331 (J Med Chem, 2020)
pIC50: −log10 of the molar value. Values after ≈ are worked out from the molar mass of the structure shown.

Key:
[1] = target: T1, Mucosa-associated lymphoid tissue lymphoma translocation protein 1 (Homo sapiens, UniProt Q9UDY8); assay: Allosteric inhibition of MALT1 in human OCI-LY3 cells assessed as reduction in BCL10 cleavage measured after 24 hrs by ELISA; assay type: cell-based, OCILY3
T1 sequence (Q9UDY8 whole entry): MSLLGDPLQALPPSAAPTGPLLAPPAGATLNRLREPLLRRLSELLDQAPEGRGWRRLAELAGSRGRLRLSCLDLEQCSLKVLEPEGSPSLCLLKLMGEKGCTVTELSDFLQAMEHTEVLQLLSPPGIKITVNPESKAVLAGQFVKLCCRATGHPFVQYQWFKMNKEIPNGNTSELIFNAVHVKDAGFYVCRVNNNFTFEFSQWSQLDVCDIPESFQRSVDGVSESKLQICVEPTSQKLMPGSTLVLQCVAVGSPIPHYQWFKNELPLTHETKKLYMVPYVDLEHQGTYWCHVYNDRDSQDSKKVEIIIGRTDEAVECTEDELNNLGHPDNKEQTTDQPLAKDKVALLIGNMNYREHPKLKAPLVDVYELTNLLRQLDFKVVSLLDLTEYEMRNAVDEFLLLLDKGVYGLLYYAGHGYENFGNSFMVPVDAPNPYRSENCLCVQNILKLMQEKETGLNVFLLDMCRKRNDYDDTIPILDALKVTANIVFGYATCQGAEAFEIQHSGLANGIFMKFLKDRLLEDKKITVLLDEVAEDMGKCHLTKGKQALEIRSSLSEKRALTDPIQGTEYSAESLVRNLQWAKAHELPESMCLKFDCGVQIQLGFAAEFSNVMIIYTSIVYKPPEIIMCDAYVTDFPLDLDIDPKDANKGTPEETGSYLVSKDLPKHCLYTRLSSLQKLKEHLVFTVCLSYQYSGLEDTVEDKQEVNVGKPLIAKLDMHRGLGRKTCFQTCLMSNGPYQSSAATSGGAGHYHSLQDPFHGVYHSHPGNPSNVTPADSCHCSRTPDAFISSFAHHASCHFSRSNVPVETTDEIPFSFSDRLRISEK

[2] = Solubility of the compound at pH 6.8; assay type: physicochemical; conditions: buffer
[3] = target: T1, Mucosa-associated lymphoid tissue lymphoma translocation protein 1; assay: Allosteric inhibition of human wild-type […] MALT1 (329 to 824 residues) protease activity using Ac-Leu-Arg-Ser-Arg Rh110-dPro as substrate preincubated for 60 mins followed by substrate addition and measured after 60 mins by fluorescence assay
[4] = Solubility of compound at pH 6.8; assay type: physicochemical; conditions: buffer
[5] = Solubility of compound at pH 6.8 assessed as extrapolated log of solubility; assay type: physicochemical; conditions: buffer
[6] = Lipophilicity, log D of the compound at pH 7.4; assay type: physicochemical; conditions: buffer
[7] = Permeability of compound by PAMPA assay; assay type: ADME
[8] = Intrinsic clearance in rat liver microsomes; assay type: ADME, Microsome; conditions: read-out: CLH
[9] = Protein binding in rat plasma; assay type: ADME, cell-free; conditions: read-out: PPB (converted)
[10] = Clearance in male Sprague-Dawley rat at 1 mg/kg, iv administered as bolus dose; assay type: ADME, organism-based; conditions: in vivo
[11] = Volume of distribution at steady state in Sprague-Dawley rat at 1 mg/kg, iv administered as bolus dose; assay type: ADME, organism-based; conditions: in vivo, read-out: Vdss
[12] = Terminal half-life in Sprague-Dawley rat at 1 mg/kg, iv administered as bolus dose; assay type: ADME, organism-based; conditions: in vivo, read-out: beta t1/2 (converted)
[13] = Dose normalized AUC in Sprague-Dawley rat at 1 mg/kg, iv administered as bolus dose; assay type: ADME, organism-based; conditions: in vivo
[14] = Dose normalized AUC in Sprague-Dawley rat at 3 mg/kg, po administered as MCT suspension; assay type: ADME, organism-based; conditions: in vivo
[15] = Dose normalized AUC in Sprague-Dawley rat at 1.25 mg/kg, po administered as solution; assay type: ADME, organism-based; conditions: in vivo
[16] = Oral bioavailability in Sprague-Dawley rat at 3 mg/kg administered as MCT suspension; assay type: ADME, organism-based; conditions: in vivo
[17] = Oral bioavailability in Sprague-Dawley rat at 1.25 mg/kg administered as solution; assay type: ADME, organism-based; conditions: in vivo
[18] = Dose normalized Cmax in Sprague-Dawley rat at 3 mg/kg, po administered as MCT suspension; assay type: ADME, organism-based; conditions: in vivo
[19] = Dose normalized Cmax in Sprague-Dawley rat at 1.25 mg/kg, po administered as solution; assay type: ADME, organism-based; conditions: in vivo
[20] = Tmax in Sprague-Dawley rat at 3 mg/kg, po administered as MCT suspension; assay type: ADME, organism-based; conditions: in vivo
[21] = Tmax in Sprague-Dawley rat at 1.25 mg/kg, po administered as solution; assay type: ADME, organism-based; conditions: in vivo
[22] = Thermodynamic solubility of the compound at pH 6.8; assay type: physicochemical; conditions: buffer, read-out: Therm_solubility
[23] = target: Voltage-gated inwardly rectifying potassium channel KCNH2 (Homo sapiens, UniProt Q12809); assay: Inhibition of human ERG
Voltage-gated inwardly rectifying potassium channel KCNH2, sequence (Q12809 whole entry): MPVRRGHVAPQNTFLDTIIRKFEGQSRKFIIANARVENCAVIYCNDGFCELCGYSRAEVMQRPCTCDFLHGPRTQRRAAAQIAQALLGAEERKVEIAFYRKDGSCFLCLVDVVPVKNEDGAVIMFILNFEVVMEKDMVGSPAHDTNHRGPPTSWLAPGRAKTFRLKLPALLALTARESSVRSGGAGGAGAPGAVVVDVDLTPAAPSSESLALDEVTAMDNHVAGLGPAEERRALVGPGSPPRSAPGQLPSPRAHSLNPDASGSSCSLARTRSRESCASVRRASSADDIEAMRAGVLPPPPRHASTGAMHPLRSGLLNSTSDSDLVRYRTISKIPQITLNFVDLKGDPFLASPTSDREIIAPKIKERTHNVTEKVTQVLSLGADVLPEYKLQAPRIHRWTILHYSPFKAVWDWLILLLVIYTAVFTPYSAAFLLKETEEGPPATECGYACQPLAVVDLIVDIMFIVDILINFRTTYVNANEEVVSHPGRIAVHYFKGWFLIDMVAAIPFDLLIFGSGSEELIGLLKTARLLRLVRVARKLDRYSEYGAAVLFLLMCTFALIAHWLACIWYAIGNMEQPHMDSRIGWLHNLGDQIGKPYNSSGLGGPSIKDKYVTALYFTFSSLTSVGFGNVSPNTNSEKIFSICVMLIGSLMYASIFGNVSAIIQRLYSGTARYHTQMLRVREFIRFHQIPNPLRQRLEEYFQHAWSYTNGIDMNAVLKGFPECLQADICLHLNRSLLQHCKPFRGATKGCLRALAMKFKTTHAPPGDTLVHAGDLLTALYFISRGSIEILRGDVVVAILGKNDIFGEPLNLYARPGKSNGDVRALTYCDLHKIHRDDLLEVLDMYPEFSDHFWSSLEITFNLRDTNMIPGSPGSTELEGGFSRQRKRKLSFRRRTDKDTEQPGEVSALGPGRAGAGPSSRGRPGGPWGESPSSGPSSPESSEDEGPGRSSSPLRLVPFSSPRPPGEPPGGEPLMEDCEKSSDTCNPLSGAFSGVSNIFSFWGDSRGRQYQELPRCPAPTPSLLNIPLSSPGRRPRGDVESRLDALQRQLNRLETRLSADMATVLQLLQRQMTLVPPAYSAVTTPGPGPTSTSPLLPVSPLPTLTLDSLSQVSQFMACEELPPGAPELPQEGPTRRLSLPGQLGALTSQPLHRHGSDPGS

COc1ccc(NC(=O)Nc2cnc3ccc(Br)cc3c2Cl)cc1Cl
pIC50 [1]: 6.29
solubility [2]: < 4 µM
pIC50 [3]: 7.54

COc1ccc(NC(=O)NC2COc3ccccc3C2)cc1Cl (racemic)
pIC50 [1]: 5.64
pIC50 [3]: 6.61

COc1ccc(NC(=O)Nc2cnc3ccc(C#N)cc3c2N2CCOC[C@@H]2C)cc1Cl
pIC50 [1]: 6.92
solubility [2]: < 4 µM
pIC50 [3]: 8.22

COc1ncc(NC(=O)NC2COc3ccc(Br)cc3C2)cc1Cl (stereo not given)
pIC50 [1]: 5.45
pIC50 [3]: 7.51

COc1ccc(NC(=O)NC2CSc3ccc(F)cc3C2)cc1Cl (racemic)
pIC50 [1]: 5.37
pIC50 [3]: 6.84

COc1ccc(NC(=O)NC2CCc3ccccc3C2)cc1Cl (racemic)
pIC50 [3]: < 4.00

COc1ccc(CC(=O)NC2COc3ccccc3C2)cc1Cl (stereo not given)
pIC50 [3]: < 4.00

COc1ccc(NC(=O)Nc2cnc3ccc(Br)cc3c2)cc1Cl
pIC50 [1]: 5.32
solubility [2]: < 4 µM
pIC50 [3]: 6.62

COc1ccc(NC(=O)NC2COc3ccc(F)cc3C2)cc1Cl (racemic)
pIC50 [1]: 5.90
pIC50 [3]: 7.24

COc1ccc(NC(=O)Nc2cnc3ccc(C#N)cc3c2N(C)C2CCOCC2)cc1Cl
pIC50 [1]: 6.17
solubility [2]: 27 µM (≈ 12.6 µg/mL)
pIC50 [3]: 8.10
log1/S [4]: 7.1
log1/S0 [4]: 7.1
log1/S [5]: 7.1

COc1ccc(NC(=O)NC2COc3ccc(C#N)cc3C2)cc1Cl (racemic)
pIC50 [1]: 5.72
pIC50 [3]: 6.82

COc1ccc(NC(=O)NC2COc3ccc(Br)cc3C2)cc1Cl (racemic)
pIC50 [3]: 7.30

COc1ncc(NC(=O)Nc2cnc3cc(Br)nn3c2N2CCOC[C@@H]2C)cc1Cl
pIC50 [1]: 6.13
solubility [2]: 155 µM (≈ 77 µg/mL)
pIC50 [3]: 7.77

C[C@H]1COCCN1c1c(NC(=O)Nc2cnc(OC3CCN(C)CC3)c(Cl)c2)cnc2ccc(F)cc12
solubility [2]: 60 µM (≈ 31.7 µg/mL)
pIC50 [3]: 7.15

COc1ccc(NC(=O)N[C@H]2COc3ccccc3C2)cc1Cl
pIC50 [3]: 6.87

COc1ncc(NC(=O)Nc2cnc3cc(Cl)nn3c2N2CCOCC2(C)C)cc1Cl
pIC50 [1]: 7.10
solubility [2]: < 4 µM
pIC50 [3]: 8.70

COc1ncc(NC(=O)Nc2cnc3ccc(C#N)cc3c2N(C)C2CCOCC2)cc1Cl
pIC50 [1]: 6.72
solubility [2]: < 4 µM
pIC50 [3]: 8.70

COc1ncc(NC(=O)Nc2cnc3ccc(C#N)cc3c2N2CCOC[C@@H]2C)cc1Cl
pIC50 [1]: 7.43
solubility [2]: < 4 µM
logD [6]: 3.8
log(permeability) [7]: -4.9
microsomal CLint [8]: 3.4 µL/min/mg
fraction unbound [9]: 0.025
clearance [10]: 31 mL/min/kg
Vd [11]: 4.8 L/kg
half-life [12]: 2.1 h
AUC/dose [13]: 1240 nM·h
AUC/dose [14]: 103 nM·h
AUC/dose [15]: 520 nM·h
bioavailability [16]: 8%
bioavailability [17]: 42%
Cmax/dose [18]: 11 nM
Cmax/dose [19]: 71 nM
Tmax [20]: 8 h
Tmax [21]: 3 h
pIC50 [3]: 8.30
solubility thermodynamic [22]: 0.2 µg/mL (≈ 0.442 µM)

COc1ccc(N(C)C(=O)NC2COc3ccc(Br)cc3C2)cc1Cl (stereo not given)
pIC50 [3]: < 4.00

COc1ncc(NC(=O)Nc2cnc3cc(Cl)nn3c2N2[C@@H](C)COC[C@@H]2C)cc1Cl
pIC50 [1]: 6.48
solubility [2]: 81 µM (≈ 37.8 µg/mL)
pIC50 [3]: 8.22

O=C(Nc1ccc(-n2cncn2)c(Cl)c1)N[C@H]1COc2ccc(Br)cc2C1
pIC50 [1]: 5.71
pIC50 [3]: 7.59

CC1(C)COCCN1c1c(NC(=O)Nc2ccnc(C(F)(F)F)c2)cnc2cc(Cl)nn12
pIC50 [1]: 6.55
solubility [2]: 8 µM (≈ 3.76 µg/mL)
pIC50 [3]: 8.22

COc1ncc(NC(=O)Nc2cnc3ccc(F)cc3c2N(C)C2CCCN(C)C2)cc1Cl (stereo not given)
solubility [2]: 61 µM (≈ 28.9 µg/mL)
pIC50 [23]: 5.05
pIC50 [3]: 7.15

COc1ccc(NC(=O)CC2COc3ccccc3C2)cc1Cl (stereo not given)
pIC50 [3]: 6.00

COc1ccc(NC(=O)N[C@@H]2COc3ccccc3C2)cc1Cl
pIC50 [3]: < 4.00

COc1ccc(NC(=O)N(C)C2COc3ccc(Br)cc3C2)cc1Cl (stereo not given)
pIC50 [3]: < 4.00
